Data published in US8846705B2, “Diaminopyrimidines as P2X3 and P2X2/3 antagonists” (Roche Palo Alto LLC, priority 2004, dated 2014).
pIC50: −log10 of the molar value. Counter-ions that a name gives are not always drawn.

Columns and labels:
rat P2X3 receptor = molecular target: T1, rat P2X3 receptor (Rattus norvegicus, UniProt P49654); test: cell-based
T1 sequence (P49654 1-397): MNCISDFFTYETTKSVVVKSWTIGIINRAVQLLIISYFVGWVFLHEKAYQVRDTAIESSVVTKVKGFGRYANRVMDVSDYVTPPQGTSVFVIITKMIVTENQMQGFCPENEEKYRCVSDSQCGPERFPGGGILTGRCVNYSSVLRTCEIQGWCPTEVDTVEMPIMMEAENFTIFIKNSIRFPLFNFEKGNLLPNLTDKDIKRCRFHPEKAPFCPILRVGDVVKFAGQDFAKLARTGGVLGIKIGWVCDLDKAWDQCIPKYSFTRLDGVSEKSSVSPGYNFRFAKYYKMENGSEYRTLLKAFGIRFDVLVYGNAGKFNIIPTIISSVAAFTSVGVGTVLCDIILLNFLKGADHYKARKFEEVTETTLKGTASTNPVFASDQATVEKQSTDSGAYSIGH
Description: P2X3/P2X2/3 FLIPR (Fluorometric Imaging Plate Reader) Assay
CHO-K1 cells were transfected with cloned rat P2X3 or human P2X2/3 receptor subunits and passaged in flasks. 18-24 hours before the FLIPR experiment, cells were released from their flasks, centrifuged, and resuspended in nutrient medium at 2.5×10^5 cells/ml. The cells were aliquoted into black-walled 96-well plates at a density of 50,000 cells/well and incubated overnight in 5% CO2 at 37° C. On the day of the experiment, cells were washed in FLIPR buffer (calcium- and magnesium-free Hank's balanced salt solution, 10 mM HEPES, 2 mM CaCl2, 2.5 mM probenecid; FB). […]
Test compounds (dissolved in DMSO at 10 mM and serially diluted with FB) or vehicle were added to each well (25 μl of a 4× solution) and allowed to equilibrate for 20 minutes at room temperature. The plates were then placed in the FLIPR and a baseline fluorescence measurement (excitation at 488 nm and emission at 510-570 nm) was obtained for 10 seconds before a 100 μl/well agonist or vehicle addition. […] Fluorescence was measured for an additional 2 minutes at 1 second intervals after agonist addition. A final addition of ionomycin (5 μM, final concentration) was made to each well of the FLIPR test plate to establish cell viability and maximum fluorescence of dye-bound cytosolic calcium. […]

| melting point [°C] | pIC50 (rat P2X3 receptor) | Structure (SMILES) |
| --- | --- | --- |
| 256 |  | Cc1cn(C)c2cc(C(F)(F)F)c(Oc3cnc(N)nc3N)cc12 (as salt: hydrochloride) [Example 63, 5-(1,3-Dimethyl-6-trifluoromethyl-1H-indol-5-yloxy)-pyrimidine-2,4-diamine] |
| 167.3 to 170.1 |  | CC(C)c1cc2c(cc1Oc1cnc(N)nc1N)OCCN2C [Example 58, 5-(6-Isopropyl-4-methyl-3,4-dihydro-2H-benzo[1,4]oxazin-7-yloxy)-pyrimidine-2,4-diamine] |
| 63.5 to 69.4 |  | CNC(=O)OC[C@@H](C)Nc1ncc(Oc2cc(Cl)c(OC)cc2C(C)C)c(N)n1 (stereo in doubt) [Example 7, Methyl-carbamic acid 2-[4-amino-5-(5-chloro-2-isopropyl-4-methoxy-phenoxy)-pyrimidin-2-ylamino]-propyl ester] |
| 253.7 to 254.6 |  | COc1cc(C(C)C)c(Oc2cnc(N)nc2N)cc1-c1ccco1 [Example 59, 5-(5-Furan-2-yl-2-isopropyl-4-methoxy-phenoxy)-pyrimidine-2,4-diamine] |
| 115 to 117 |  | COc1cc(C(C)C)c(Oc2cnc(N)nc2N)cc1N1CCN(S(C)(=O)=O)CC1 [Example 61, 5-[2-Isopropyl-5-(4-methanesulfonyl-piperazin-1-yl)-4-methoxy-phenoxy]-pyrimidine-2,4-diamine] |
| 111.4 to 116.9 |  | COc1cc(C(C)C)c(Oc2cnc(N[C@H](C)CO)nc2N)cc1Cl (as salt: hydrochloride) [Compound 120, 2-[4-Amino-5-(5-chloro-2-isopropyl-4-methoxy-phenoxy)-pyrimidin-2-ylamino]-(R)-propan-1-ol] |
| > 300 |  | Cc1c(C(=O)O)[nH]c2cc(Oc3cnc(N)nc3N)c(C(C)C)cc12 [Example 64, 6-(2,4-Diamino-pyrimidin-5-yloxy)-5-isopropyl-3-methyl-1H-indole-2-carboxylic acid] |
|  | ~8.30 | CC(C)c1cc(O)c(I)cc1Oc1cnc(N)nc1N [4-(2,4-Diamino-pyrimidin-5-yloxy)-2-iodo-5-isopropyl-phenol] |
| 135 to 138.5 |  | COc1cc(C(C)C)c(Oc2cnc(N)nc2N)cc1-c1ncon1 (as salt: trifluoroacetic acid salt) [Example 57, 5-(2-Isopropyl-4-methoxy-5-[1,2,4]oxadiazol-3-yl-phenoxy)-pyrimidine-2,4-diamine] |
| 181 |  | CCc1c(Oc2cnc(N)nc2N)cc(C)c2sccc12 [Example 62, 5-(4-Ethyl-7-methyl-benzo[b]thiophen-5-yloxy)-pyrimidine-2,4-diamine] |
| > 300 |  | Cc1nc2c(C)cc(Oc3cnc(N)nc3N)c(C(C)C)c2o1 (as salt: hydrochloride) [Example 66, 5-(7-Isopropyl-2,4-dimethyl-benzooxazol-6-yloxy)-pyrimidine-2,4-diamine] |
|  | < 5.00 | COc1cc(C)c(Cc2cnc(N)nc2N)cc1OC [5-(4,5-Dimethoxy-2-methyl-benzyl)-pyrimidine-2,4-diamine] |
